Literature values as cited in patent US10695439B2, “Pyrrolobenzodiazepine conjugates” (Medimmune Limited, priority 2016, dated 2020).

What was measured:
[1] = relative to SG2057, Hartley et al 2012
human tumour cell lines = conditions: quoted from 2014 REF impact study
[2] = test system: human tumour xenograft models; conditions: quoted from 2014 REF impact study

Structure (SMILES): C=C1C[C@H]2C=Nc3cc(OCCCOc4cc5c(cc4OC)C(=O)N4CC(=C)C[C@H]4C=N5)c(OC)cc3C(=O)N2C1 [SG2000]
- cytotoxicity, times less cytotoxic than SG2057 [1]: at least 10 times

Structure (SMILES): COc1ccc(C2=CN3C(=O)c4cc(OC)c(OCCCOc5cc6c(cc5OC)C(=O)N5C=C(c7ccc(OC)cc7)C[C@H]5C=N6)cc4N=C[C@@H]3C2)cc1 [SG2202]
- activity against a range of human tumour cell lines (human tumour cell lines): picomolar/sub-picomolar activity
- activity in human tumour xenograft models [2]: curative activity
